The source of these data is patent US9529006B1, “Method for direct detection of lipid binding agents in membrane” (KING SAUD UNIVERSITY, priority 2015, dated 2016).

A short description of series [1]: Electrophysiology, gA and Alm channel currents in lipid bilayer. The settings on record: for conductance events in channels in lipid bilayer: gA V=200 mV, Alm V=150 mV. As for the experimental part: (§1) As defined herein, a liposome is a spherical vesicle having at least one lipid bilayer. The liposome can be used as a vehicle for administration of nutrients and pharmaceutical drugs. Liposomes can be prepared routinely by disrupting biological membranes (such as by sonication). Two different kinds of processes to address membrane effects of all three different classes of MAAs were developed. First, the electrophysiology (EP) trials were performed to record membrane currents across lipid bilayer membranes doped with AMPs (antimicrobial peptides) or CDs (chemotherapy drugs). This technique helps to detect the presence of any stable, semi-stable or transient structures that might be induced into the lipid bilayer membrane as a result of MAA-lipid coexistence. To understand the membrane effect of aptamers, fluorescence (FL) measurements on liposome bound aptamers were performed. This method helps to understand the general lipid membrane binding of aptamers.
The membrane effects of AMPs were tested using established electrophysiology technique. Here, gA (gramicidin A) monomer with 15 amino acids was used for constructing gA channels and Alm (alamethicin) monomers were used for constructing Alm channels in a bilayer constructed using lipid 1,2-Dioleoyl-sn-Glycero-3-Phosphocholine. For the membrane effects of CDs, planar lipid bilayers were formed by applying a lipid cocktail of Phosphoethanolamine: phosphatydyleserine: phosphatidylcholine (5:3:2, v/v/v)/n-decane using the painting method over a 150 μm septum of a bilayer cuvette. The aptamer-lipid binding aspects were addressed by preparing liposomes using liposome technology. The liposomes were prepared with 1,2-dipalmitoyl-sn-glycero-3-phosphatidylcholine (DPPC) and 1,2-dipalmitoyl-sn-glycero-3-phospho-L-serine (sodium salt) (DPPS). Buffer with the liposome-bound and unbound aptamers containing 6-carboxyfluorescein (6-FAM) fluorescent tag attached at the 3′ end of the DNA sequence was separated using standard binding assay. The solution with bound aptamers was then investigated for fluorescence quantification. The following examples will further illustrate the direct detection method (DDM).
Membrane currents across lipid bilayer membranes doped with antimicrobial peptides (AMPs) or chemotherapy drugs (CDs) were investigated. The pattern of the general time dependent ion pore conducting current fluctuations is MAA specific. The amplitude and stability of the current events are found to vary due to the differences in the structures of MAAs. Some ion pores conduct currents with constant amplitudes over a period of time considered as pore lifetime. While a few other pores are found to conduct currents with fluctuating amplitudes over their lifetimes.
The gA channel activity was recorded at V=200 mV and Alm at V=150 mV. Here IgA=29±2, 113±5, 243±9 and 386±10 pA respectively are the discrete current levels 0, 1, 2, 3, . . . , etc. in Alm channel. Traces representing gA and Alm channel activities in phospholipid bilayers were recorded at filter frequencies 2 kHz and 20 kHz, respectively. A lower filter frequency for traces representing gA channel activity is alright because of the channel's relatively higher stability. In (B) the point count plots of the current traces through gA and Alm channels peak at discrete values of conductance.
AMP gA is reported to induce conductance events that conducts constant current IgA pA over its lifetime τgA. At the formation and breaking of a gA channel the current undergoes transitions between 0→IgA pA and IgA→0 pA respectively. The current transitions between 0 ? IgA pA happen instantaneously that means current transitions take almost no time. Here, IgA is constant (˜in low range pA) for any gA channel but TO appears with all possible values within a range 0 to a very high value in ms order]. With varied number of amino acids in gA monomer the value of both IgA and τgA vary. Detailed analysis can be found in ref. [2-6]. […]

Series [2] is described as follows: Electrophysiology, membrane currents across planar lipid bilayers doped with chemotherapy drugs. Conditions: 90 μM, pH=5.7, V=100 mV.
Protocol: The gA channel activity was recorded at V=200 mV and Alm at V=150 mV. […] Traces representing gA and Alm channel activities in phospholipid bilayers were recorded at filter frequencies 2 kHz and 20 kHz, respectively.
Series [3] can be described thus: Fluorescence measurements on liposome bound aptamers, liposome containing only PC. The settings on record: liposomes containing no PS. Format: binding. The method, then: as §1, with “This technique helps to detect the presence of any stable, semi-stable or transient structures that might be induced into the lipid bilayer membrane as a result of MAA-lipid coexistence.” left out, “This method helps to understand the general lipid membrane binding of aptamers.” left out
(§2) The membrane effects of AMPs were tested using established electrophysiology technique. […] The solution with bound aptamers was then investigated for fluorescence quantification. […]
(§3) The aptamer-lipid binding aspects were addressed by preparing liposomes using known liposome technology. […] The solution with bound aptamers was then investigated for fluorescence quantification.
(§4) Binding affinity and selectivity of designed DNA aptamers were measured. […] The fluorescence (FL) measured in relative fluorescence units (RFU) is plotted against the [DNA] aptamer concentration. […]

Series [4] in a line: Fluorescence measurements on liposome bound aptamers, liposomes containing PS. Format: binding. Conditions: liposomes containing 10% PS (DPPC and DPPS 9:1); 6-FAM tagged aptamer. As for the experimental part:
as §1, with “This technique helps to detect the presence of any stable, semi-stable or transient structures that might be induced into the lipid bilayer membrane as a result of MAA-lipid coexistence.” left out, “This method helps to understand the general lipid membrane binding of aptamers.” left out
as §2, §3, §4

Where a SMILES comes first, the peptide text is derived from it. [ ]: non-standard residue; d: D form. Phe(ol) = N[C@H](CO)Cc1ccccc1; Aib = CC(C)(N)C(=O)O

Consider `CC(=O)NC(C)(C)C(=O)N1CCC[C@H]1C(=O)NC(C)(C)C(=O)N[C@@H](C)C(=O)NC(C)(C)C(=O)N[C@@H](C)C(=O)N[C@@H](CCC(N)=O)C(=O)NC(C)(C)C(=O)N[C@H](C(=O)NC(C)(C)C(=O)NCC(=O)N[C@@H](CC(C)C)C(=O)NC(C)(C)C(=O)N1CCC[C@H]1C(=O)N[C@H](C(=O)NC(C)(C)C(=O)NC(C)(C)C(=O)N[C@@H](CCC(=O)O)C(=O)N[C@@H](CCC(N)=O)C(=O)N[C@H](CO)Cc1ccccc1)C(C)C)C(C)C` [Alm, alamethicin] (Ac-[Aib]P[Aib]A[Aib]AQ[Aib]V[Aib]GL[Aib]PV[Aib][Aib]EQ[Phe(ol)]), for which the “discrete current level 0 in Alm channel” value in series [1] (V=150 mV, level 0) is on record as 29±2 pA. In addition, the “discrete current level 1 in Alm channel” value in series [1] (V=150 mV, level 1) turned out to be 113±5 pA. In addition, in series [1] (V=150 mV, level 2), the “discrete current level 2 in Alm channel” value was determined as 243±9 pA. For the same compound, the “discrete current level 3 in Alm channel” value in series [1] (V=150 mV, level 3) is 386±10 pA. In addition, in series [1], the “conductance events in channels in lipid bilayer” value is “rectangular-shape conductance events”.

On to `COc1c(O[C@@H]2O[C@H](CO)[C@@H](O)[C@H](O)[C@H]2O)cc2c(c1OC)-c1ccc(SC)c(=O)cc1[C@@H](NC(C)=O)CC2` [TCC, thiocolchicoside], for which the “conductance events induced in lipid bilayer” value in series [2] is “triangular-shaped conductance events”.

In the case of “SIIAp1: designed DNA aptamer, sequence (5′ → 3′) CAGAAAAAAAC (DNA, backbone and methylation of C not given here; further chemistry not fully specified)”, the “binding of aptamer with liposome containing only PC (fluorescence)” value in series [3] is listed as “low non-specific binding”. The “binding of aptamer with liposomes containing PS (fluorescence, RFU vs [DNA])” value in series [4] is listed as “selective binding”.

Consider “SIIAp2: designed DNA aptamer, sequence (5′ → 3′) CAGAAAAAAAT (DNA, backbone and methylation of C not given here; further chemistry not fully specified)”, for which the “binding of aptamer with liposomes containing PS (fluorescence, RFU vs [DNA])” value in series [4] was “selective binding”.

For the compound gramicidin A [gA], the “conductance events in channels in lipid bilayer” value in series [1] is recorded as “rectangular-shape conductance events”.
